Results taken from patent EP0637237B1, “CALCIUM RECEPTOR-ACTIVE MOLECULES” (BRIGHAM AND WOMEN'S HOSPITAL, INC., priority 1993, dated 1994).
Where two headings read alike, the source gives them in different places.

Tests used:
[1] = target: T1, bovine parathyroid Ca^2+-receptor (Bos taurus, UniProt P35384); assay: Cl- current in Xenopus oocytes expressing the cloned receptor (BoPCaR 1); format: cell-based; conditions: neomycin 20-100 µM
T1 construct: expressed in transfected cells; host or cells: Xenopus laevis oocytes injected with cRNA from the BoPCaR 1 cDNA (plasmid pSPORT1, ATCC 75416)
T1 sequence (P35384 20-1085): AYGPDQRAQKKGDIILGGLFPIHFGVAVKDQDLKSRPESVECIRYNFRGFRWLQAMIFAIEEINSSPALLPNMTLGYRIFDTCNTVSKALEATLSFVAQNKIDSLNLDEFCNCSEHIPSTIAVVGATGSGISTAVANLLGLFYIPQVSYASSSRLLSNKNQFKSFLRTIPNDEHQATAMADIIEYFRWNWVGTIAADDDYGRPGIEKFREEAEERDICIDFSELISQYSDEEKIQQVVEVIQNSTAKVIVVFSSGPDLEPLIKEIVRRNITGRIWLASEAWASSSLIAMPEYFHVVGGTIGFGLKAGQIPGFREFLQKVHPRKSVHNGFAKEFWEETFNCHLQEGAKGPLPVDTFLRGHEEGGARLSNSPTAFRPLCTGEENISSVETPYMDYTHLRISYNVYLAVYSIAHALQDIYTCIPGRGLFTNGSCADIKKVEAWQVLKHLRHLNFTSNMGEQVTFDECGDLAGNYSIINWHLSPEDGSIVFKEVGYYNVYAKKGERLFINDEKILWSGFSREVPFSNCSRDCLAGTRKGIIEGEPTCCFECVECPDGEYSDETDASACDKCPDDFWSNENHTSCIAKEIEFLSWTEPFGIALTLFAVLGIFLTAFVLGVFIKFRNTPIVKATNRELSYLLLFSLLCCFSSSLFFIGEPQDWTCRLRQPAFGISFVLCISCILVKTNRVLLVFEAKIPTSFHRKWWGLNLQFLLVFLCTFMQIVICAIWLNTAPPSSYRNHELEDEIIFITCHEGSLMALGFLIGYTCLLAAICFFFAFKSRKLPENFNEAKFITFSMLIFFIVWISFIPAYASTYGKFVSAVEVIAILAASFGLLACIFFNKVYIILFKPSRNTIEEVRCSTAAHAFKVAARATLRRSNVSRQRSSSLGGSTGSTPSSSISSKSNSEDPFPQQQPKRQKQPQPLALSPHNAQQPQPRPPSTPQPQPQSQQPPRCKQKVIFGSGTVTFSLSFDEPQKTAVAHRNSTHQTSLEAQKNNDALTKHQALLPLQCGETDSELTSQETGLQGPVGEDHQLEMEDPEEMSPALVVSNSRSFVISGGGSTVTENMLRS

[2] = Net positive charge of the molecule; format: physicochemical; conditions: Table 1; effective charge at physiological pH
[3] = tested on: human parathyroid cells; assay: PTH secretion from human parathyroid cells; format: cell-based; conditions: at concentrations that caused mobilization of intracellular Ca2+, Fig. 13
[4] = target: T2, parathyroid cell Ca^2+ receptor (Bos taurus, UniProt P35384); format: cell-based, bovine
T2 sequence (P35384 20-1085): T1 sequence (P35384 20-1085)

[5] = target: T3, Ca^2+ receptor (Homo sapiens, UniProt P41180); assay: Cl- current in Xenopus oocytes injected with human parathyroid poly(A)+ mRNA; format: cell-based
T3 construct: Oocytes were injected with poly(A)^+-enriched mRNA from human parathyroid tissue (hyperplastic glands from a case of secondary HPT); expressed in transfected cells; host or cells: Xenopus laevis oocytes injected with poly(A)+ mRNA from hyperplastic human parathyroid glands
T3 sequence (P41180 20-1078): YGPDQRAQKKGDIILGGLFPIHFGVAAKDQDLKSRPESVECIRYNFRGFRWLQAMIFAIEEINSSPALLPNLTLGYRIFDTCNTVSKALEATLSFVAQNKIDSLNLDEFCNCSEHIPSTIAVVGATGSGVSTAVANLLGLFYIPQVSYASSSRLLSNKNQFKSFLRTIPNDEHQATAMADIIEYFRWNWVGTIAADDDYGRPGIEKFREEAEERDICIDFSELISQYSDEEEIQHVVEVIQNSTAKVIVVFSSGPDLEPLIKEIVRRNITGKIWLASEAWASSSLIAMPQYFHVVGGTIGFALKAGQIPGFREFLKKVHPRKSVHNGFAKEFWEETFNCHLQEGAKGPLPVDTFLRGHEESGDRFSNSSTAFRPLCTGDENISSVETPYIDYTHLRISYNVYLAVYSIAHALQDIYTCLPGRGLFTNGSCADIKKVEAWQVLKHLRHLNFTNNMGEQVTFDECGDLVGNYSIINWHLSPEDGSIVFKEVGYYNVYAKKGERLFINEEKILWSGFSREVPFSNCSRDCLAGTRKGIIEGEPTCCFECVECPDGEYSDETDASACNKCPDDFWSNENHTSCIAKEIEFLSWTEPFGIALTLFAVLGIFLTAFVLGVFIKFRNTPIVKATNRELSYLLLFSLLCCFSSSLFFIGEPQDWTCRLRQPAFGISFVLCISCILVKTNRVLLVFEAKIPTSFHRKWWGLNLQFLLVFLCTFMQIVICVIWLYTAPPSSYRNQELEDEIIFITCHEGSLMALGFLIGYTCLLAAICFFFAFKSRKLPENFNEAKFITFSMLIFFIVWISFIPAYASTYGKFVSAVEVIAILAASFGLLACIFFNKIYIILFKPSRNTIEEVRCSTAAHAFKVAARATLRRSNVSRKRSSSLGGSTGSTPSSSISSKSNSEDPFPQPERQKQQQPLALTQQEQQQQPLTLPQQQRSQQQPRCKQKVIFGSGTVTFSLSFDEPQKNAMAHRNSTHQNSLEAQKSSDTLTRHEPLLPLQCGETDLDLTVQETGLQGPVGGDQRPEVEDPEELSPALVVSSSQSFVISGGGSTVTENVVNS

[6] = target: T4, parathyroid cell Ca^2+ receptor (Homo sapiens, UniProt P41180); assay: [Ca2+]i (fura-2) in human parathyroid cells; format: cell-based; parameters: increase in [Ca2+]i: dose or concentration left out as unconfirmed
T4 construct: Dissociated parathyroid cells were prepared from a parathyroid adenoma obtained by surgery from a patient with primary hyperparathyroidism; endogenous in cells; host or cells: primary human parathyroid cells from adenomatous or hyperplastic glands
T4 sequence (P41180 20-1078): T3 sequence (P41180 20-1078)
Method: Human parathyroid glands, obtained from patients undergoing surgical removal of parathyroid tissue for primary or uremic hyperparathyroidism (HPT), were treated similarly to bovine tissue. Glands were trimmed of excess fat and connective tissue and then minced with a fine scissors into approximate cubes of 2-3 mm. Dissociated parathyroid cells were prepared by collagenase digestion. Dissociated cells were then purified by centrifugation in Percoll buffer. The resultant parathyroid cell preparation was essentially devoid of red blood cells, adipocytes, and capillary tissue as assessed by phase contrast microscopy and Sudan black B staining. Dissociated and purified parathyroid cells were present as small clusters containing 5 to 20 cells.
The cells were then pelleted, resuspended in the same buffer lacking the ester, and incubated a further 15 min at 37°C. The cells were subsequently washed twice with PCB containing 0.5 mM CaCl2 and 0.5% BSA and maintained at room temperature (about 20°C). Immediately before use, the cells were diluted five-fold with prewarmed 0.5 mM CaCl2-PCB to obtain a final BSA concentration of 0.1%. The concentration of cells in the cuvette used for fluorescence recording was 1-2 x 10^6/ml.
The fluorescence of indicator-loaded cells was measured at 37°C in a spectrofluorimeter (Biomedical Instrumentation Group, University of Pennsylvania, Philadelphia, PA) equipped with a thermostated cuvette holder-and magnetic stirrer using excitation and emission wavelengths of 340 and 510 nm, respectively. […] Leakage of dye is dependent on temperature and most occurs within the first 2 min after warming the cells in the cuvette; dye leakage increases only very slowly thereafter. To correct the calibration for dye leakage, cells were placed in the cuvette and stirred at 37°C for 2-3 min. The cell suspension was then removed, the cells pelleted, and the supernatant returned to a clean cuvette. […] This estimate was subtracted from the apparent Fmin.

[7] = tested on: osteoclast Ca^2+ receptor; assay: [Ca2+]i (indo-1) in single rat osteoclasts; format: cell-based

For `NC[C@@H]1O[C@H](O[C@H]2[C@@H](O)[C@H](O[C@@H]3[C@@H](O)[C@H](N)C[C@H](N)[C@H]3O[C@H]3O[C@H](CN)[C@@H](O)[C@H](O)[C@H]3N)O[C@@H]2CO)[C@H](N)[C@@H](O)[C@@H]1O` [neomycin B], the “changes in Cl- current” value [1] was “produced changes in Cl^- current in oocytes essentially identical to those produced by Ca^2+ or Gd^3+”, the “Net (+) Charge” value [2] was “+6” and the “inhibition of PTH secretion” value [3] was “inhibited PTH secretion from human parathyroid cells”. The “[Ca2+]i response in Ca2+-free buffer” value ([4]; 100 µM neomycin (maximally effective), absence of extracellular Ca2+) was “rapid and transient increase in [Ca^2+]i”, the “[Ca2+]i response in Ca2+-free buffer” value ([4]; 10 àM neomycin alone (submaximal), Ca2+-free buffer) was “did not by itself cause an increase in [Ca^2+]i” and the “mobilization of intracellular Ca2+ in oocytes expressing the Ca2+ receptor” value ([5]; hexacyclen 135 µM, neomycin 100 µM, NPS 382 5 mM) was “effective”. For the same compound, the “change in current in water-injected oocytes” value ([5]; neomycin B 10 mM, five water-injected oocytes) was “failed to cause any change in the current”, the “pattern of change in [Ca2+]i” value ([6]; human parathyroid cells from adenomatous tissue, Fig. 19) was “not only a transient but additionally a steady-state increase in [Ca^2+]i” and the “increase in [Ca2+]i” value ([6]; tested) was “large increase in [Ca^2+]i”. For the same compound, the “effect on basal [Ca2+]i” value ([7]; 5 mM) was “without effect on basal [Ca^2+]i”, the “effect on the response to subsequent extracellular Ca2+ (25 mM)” value ([7]; neomycin 10 mM, spermine 20 mM, verapamil 100 µM) was “did not block” and the “increase in [Ca2+]i in rat osteoclasts” value ([7]; neomycin 10 mM, spermine 10 or 20 mM) was “Neither neomycin (10 mM) nor spermine (10 or 20 mM) caused increases in [Ca^2+]i”. For the same compound, the “increase in [Ca2+]i in osteoclasts” value ([7]; neomycin B 1 mM, spermine 1 or 5 mM, Fig. 23) was “failed to evoke any increase in [Ca^2+]i” and the “increase in [Ca2+]i in osteoclasts” value ([7]; screening, small responses were detected) was “none of these caused any large increase in [Ca^2+]i”.
